These results are taken from patent US5616712A, “Acetylenes disubstituted with a phenyl or heteroaryl group and a 2-thio-1,2,3,4-tetrahdroquinolinyl, 2-alkylthio-3,4-dihydroquinolinyl or 2-alkoxy-3,4-dihydroquinolinyl group having retinoid-like biological activity” (Allergan, priority 1995, dated 1997).

Bounds are passed on as bounds.

The subject of experiment [1] is ornithine decarboxylase (ODC). As to conditions: qualitative; cited from earlier work.
Experiment [2] relates to ornithine decarboxylase (ODC). The experiment is described as follows: Inhibition of TPA induction of ornithine decarboxylase (ODC) (Table 2). It counts as cell-based. As to conditions: concentration which results in 80 per cent inhibition of the ODC induction activity by TPA. From the text: The retinoid-like activity of these compounds is confirmed through the classic measure of retinoic acid activity involving the effects of retinoic acid on ornithine decarboxylase. The original work on the correlation between retinoic acid and decrease in cell proliferation was done by Verma & Boutwell, Cancer Research, 1977, 37,2196-2201. That reference discloses that ornithine decarboxylase (ODC) activity increased precedent to polyamine biosynthesis. It has been established elsewhere that increases. in polyamine synthesis can be correlated or associated with cellular proliferation. Thus, if ODC activity could be inhibited, cell hyperproliferation could be modulated. […] IC80 is that concentration of the test compound (expresed in nanomolar (nmol)) which results in 80 per cent inhibition of the ODC induction activity by TPA.

Take `CCCCCCCCCCCCCC(=O)O[C@@H]1[C@@H](C)[C@@]2(O)[C@@H](C=C(CO)C[C@]3(O)C(=O)C(C)=C[C@@H]23)[C@@H]2C(C)(C)[C@]12OC(C)=O` [12-0-tetradecanoylphorbol-13-acetate]: in experiment [1], the “induction of ODC activity” value was “induces ODC activity”.
On to `CCOC(=O)c1ccc(C#Cc2ccc3c(c2)C(C)(C)CC(=O)N3C(C)C)cc1` [Compound 5], for which it took 0.0064 µM to reach the 80% level in experiment [2] (IC80).
On the same count and under the same terms, for `CCOC(=O)c1ccc(C#Cc2ccc3c(c2)C(C)(C)CC(OC(C)C)=N3)cc1` [Compound 6, Ethyl 4-[(4,4-dimethyl-2-isopropoxy-3,4-dihydro-6-quinolinyl)ethynyl]benzoate] the value was > 0.1 µM.
Still for that read-out and setting: the value for `CCOC(=O)c1ccc(C#Cc2ccc3c(c2)C(C)(C)CC(=S)N3C(C)C)cc1` [Compound 7, Ethyl 4-[(4,4-dimethyl-2-thio-1,2,3,4-tetrahydro-1-iso-propyl-6-quinolinyl)ethynyl]benzoate] was 0.0055 µM; that for `CCOC(=O)c1ccc(C#Cc2ccc3c(c2)C(C)(C)CC(=S)N3)cc1` [Compound 8, Ethyl 4-[(4,4-dimethyl-2-thio-1,2,3,4-tetrahydro-6quinolinyl)ethynyl]benzoate] was 0.054 µM; that for `CCOC(=O)c1ccc(C#Cc2ccc3c(c2)C(C)(C)CC(SC)=N3)cc1` [Compound 9, Ethyl 4-[(4,4-dimethyl-2-methylthio-3,4-dihydro-6-quinolinyl)ethynyl]benzoate] was 0.029 µM.
As to `CCCCCCCSC1=Nc2ccc(C#Cc3ccc(C(=O)OCC)cc3)cc2C(C)(C)C1` [Compound 10, Ethyl 4-[(4,4-dimethyl-2-heptylthio-3,4-dihydro-6-quinolinyl)ethynyl]benzoate], in experiment [2], the 80% effect concentration (IC80) – broadly, the concentration at which the effect reaches the 80% level – is > 0.06 µM.
For the compound `CC1=C(/C=C/C(C)=C/C=C/C(C)=C/C(=O)O)C(C)(C)CCC1` [Retinoic acid], the “inhibition of TPA induction of ODC activity” value in experiment [1] is reported as “inhibits this induction of ODC activity by TPA”.
